Measured values reported in patent US10770169B2, “Method of providing a treatment to a subject based on a dynamic pathway map” (THE REGENTS OF THE UNIVERSITY OF CALIFORNIA, priority 2010, dated 2020).
Counter-ions that a name gives are not always drawn. Like-named read-outs stand apart in the source and are kept apart here.

System: panel of 55 breast cancer cell lines
Test: Cell growth inhibition assay (Cell Titer Glo, 72 h, 9 doses; GI50, TGI, LC50)
Type: cell-based, human

For `CCCCCN(C)CCC(O)(P(=O)(O)O)P(=O)(O)O` [Ibandronate sodium salt], the GI50 (Homo sapiens, AU565, AU565 cell line, censored GI50 values, read-out: GI50 (converted)) was 182 µM, the GI50 (Homo sapiens, AU565, cell line AU565, read-out: GI50 (converted)) was 182 µM and the GI50 (Homo sapiens, BT-20, BT20 cell line, censored GI50 values, read-out: GI50 (converted)) was 20.4 µM. It also gave a GI50 (Homo sapiens, BT-20, cell line BT20, read-out: GI50 (converted)) of 20.4 µM, a GI50 (Homo sapiens, BT-474, BT474 cell line, censored GI50 values, read-out: GI50 (converted)) of 105 µM and a GI50 (Homo sapiens, BT-483, BT483 cell line, censored GI50 values, read-out: GI50 (converted)) of 57.5 µM. The GI50 (Homo sapiens, CAMA-1, CAMA1 cell line, censored GI50 values, read-out: GI50 (converted)) was 162 µM, the GI50 (Homo sapiens, HCC38, HCC38 cell line, censored GI50 values, read-out: GI50 (converted)) was 57.5 µM and the GI50 (Homo sapiens, HCC70, HCC70 cell line, censored GI50 values, read-out: GI50 (converted)) was 69.2 µM. For the same molecule, the GI50 (Homo sapiens, HCC1143, HCC1143 cell line, censored GI50 values, read-out: GI50 (converted)) was 43.7 µM, the GI50 (Homo sapiens, HCC1187, HCC1187 cell line, censored GI50 values, read-out: GI50 (converted)) was 170 µM and the GI50 (Homo sapiens, HCC1395, HCC1395 cell line, censored GI50 values, read-out: GI50 (converted)) was 7.41 µM. For the same molecule, the GI50 (Homo sapiens, HCC1419, HCC1419 cell line, censored GI50 values, read-out: GI50 (converted)) was 7.59 µM, the GI50 (Homo sapiens, HCC1428, HCC1428 cell line, censored GI50 values, read-out: GI50 (converted)) was 129 µM and the GI50 (Homo sapiens, HCC1500, HCC1500 cell line, censored GI50 values, read-out: GI50 (converted)) was 38 µM. The GI50 (Homo sapiens, HCC1806, HCC1806 cell line, censored GI50 values, read-out: GI50 (converted)) was 33.1 µM, the GI50 (Homo sapiens, HCC1937, HCC1937 cell line, censored GI50 values, read-out: GI50 (converted)) was 40.7 µM and the GI50 (Homo sapiens, HCC1954, HCC1954 cell line, censored GI50 values, read-out: GI50 (converted)) was 55 µM. For the same molecule, the GI50 (Homo sapiens, HCC2185 cell line, censored GI50 values, read-out: GI50 (converted)) was 15.1 µM, the GI50 (Homo sapiens, HCC3153 cell line, censored GI50 values, read-out: GI50 (converted)) was 79.4 µM and the GI50 (Homo sapiens, MDA-MB-134-VI, MDAMB134VI cell line, censored GI50 values, read-out: GI50 (converted)) was 69.2 µM. It also gave a GI50 (Homo sapiens, MDA-MB-175-VII, MDAMB175VII cell line, censored GI50 values, read-out: GI50 (converted)) of 33.9 µM, a GI50 (Homo sapiens, MDA-MB-231, MDAMB231 cell line, censored GI50 values, read-out: GI50 (converted)) of 74.1 µM and a GI50 (Homo sapiens, MDA-MB-415, MDAMB415 cell line, censored GI50 values, read-out: GI50 (converted)) of 49 µM. For the same molecule, the GI50 (Homo sapiens, MDA-MB-453, MDAMB453 cell line, censored GI50 values, read-out: GI50 (converted)) was 110 µM, the GI50 (Homo sapiens, MDA-MB-468, MDAMB468 cell line, censored GI50 values, read-out: GI50 (converted)) was 93.3 µM and the GI50 (Homo sapiens, SK-BR-3, SKBR3 cell line, censored GI50 values, read-out: GI50 (converted)) was 89.1 µM. For the same molecule, the GI50 (Homo sapiens, SUM52PE, SUM52PE cell line, censored GI50 values, read-out: GI50 (converted)) was 35.5 µM, the GI50 (Homo sapiens, SUM149PT, SUM149PT cell line, censored GI50 values, read-out: GI50 (converted)) was 174 µM and the GI50 (Homo sapiens, SUM225CWN, SUM225CWN cell line, censored GI50 values, read-out: GI50 (converted)) was 501 µM. For the same molecule, the GI50 (Homo sapiens, SUM1315MO2, SUM1315MO2 cell line, censored GI50 values, read-out: GI50 (converted)) was 50.1 µM, the GI50 (Homo sapiens, SUM-159-PT, SUM159PT cell line, censored GI50 values, read-out: GI50 (converted)) was 42.7 µM and the GI50 (Homo sapiens, T47D, T47D cell line, censored GI50 values, read-out: GI50 (converted)) was 34.7 µM. It also gave a GI50 (Homo sapiens, UACC-812, UACC812 cell line, censored GI50 values, read-out: GI50 (converted)) of 155 µM, a GI50 (Homo sapiens, ZR-75-1, ZR751 cell line, censored GI50 values, read-out: GI50 (converted)) of 69.2 µM and a GI50 (Homo sapiens, ZR-75B, ZR75B cell line, censored GI50 values, read-out: GI50 (converted)) of 141 µM.

`COc1ccc(C2=N[C@@H](c3ccc(Cl)cc3)[C@@H](c3ccc(Cl)cc3)N2C(=O)N2CCNC(=O)C2)c(OC(C)C)c1` [Nutlin 3a] showed a GI50 (cell line 600MPE, value is the negative log10 of mol/L) of 4.32, a GI50 (cell line AU565, censored GI50 values, value is the negative log10 of mol/L) of 4.79 and a GI50 (cell line AU565, value is the negative log10 of mol/L) of 4.79. For the same molecule, the GI50 (cell line BT20, censored GI50 values, value is the negative log10 of mol/L) was 4.47, the GI50 (cell line BT20, value is the negative log10 of mol/L) was 4.47 and the GI50 (cell line BT474, censored GI50 values, value is the negative log10 of mol/L) was 4.39. For the same molecule, the GI50 (cell line BT474, value is the negative log10 of mol/L) was 4.39, the GI50 (cell line BT483, censored GI50 values, value is the negative log10 of mol/L) was 5.19 and the GI50 (cell line BT483, value is the negative log10 of mol/L) was 5.19. It also gave a GI50 (cell line BT549, value is the negative log10 of mol/L) of 4.35, a GI50 (cell line CAMA1, value is the negative log10 of mol/L) of 4.30 and a GI50 (cell line HCC38, censored GI50 values, value is the negative log10 of mol/L) of 4.66. It also gave a GI50 (cell line HCC38, value is the negative log10 of mol/L) of 4.66, a GI50 (cell line HCC70, censored GI50 values, value is the negative log10 of mol/L) of 4.73 and a GI50 (cell line HCC70, value is the negative log10 of mol/L) of 4.73. For the same molecule, the GI50 (cell line HCC202, censored GI50 values, value is the negative log10 of mol/L) was 5.02, the GI50 (cell line HCC202, value is the negative log10 of mol/L) was 5.02 and the GI50 (cell line HCC1143, censored GI50 values, value is the negative log10 of mol/L) was 4.67. It also gave a GI50 (cell line HCC1143, value is the negative log10 of mol/L) of 4.67, a GI50 (cell line HCC1187, censored GI50 values, value is the negative log10 of mol/L) of 4.68 and a GI50 (cell line HCC1187, value is the negative log10 of mol/L) of 4.68. The GI50 (cell line HCC1395, censored GI50 values, value is the negative log10 of mol/L) was 4.65, the GI50 (cell line HCC1395, value is the negative log10 of mol/L) was 4.65 and the GI50 (cell line HCC1419, censored GI50 values, value is the negative log10 of mol/L) was 4.39. The GI50 (cell line HCC1419, value is the negative log10 of mol/L) was 4.39, the GI50 (cell line HCC1428, censored GI50 values, value is the negative log10 of mol/L) was 4.50 and the GI50 (cell line HCC1428, value is the negative log10 of mol/L) was 4.50. It also gave a GI50 (cell line HCC1500, censored GI50 values, value is the negative log10 of mol/L) of 4.57, a GI50 (cell line HCC1500, value is the negative log10 of mol/L) of 4.57 and a GI50 (cell line HCC1806, value is the negative log10 of mol/L) of 4.29. For the same molecule, the GI50 (cell line HCC1937, censored GI50 values, value is the negative log10 of mol/L) was 4.63, the GI50 (cell line HCC1937, value is the negative log10 of mol/L) was 4.63 and the GI50 (cell line HCC1954, censored GI50 values, value is the negative log10 of mol/L) was 4.76. For the same molecule, the GI50 (cell line HCC1954, value is the negative log10 of mol/L) was 4.76, the GI50 (cell line HCC2185, censored GI50 values, value is the negative log10 of mol/L) was 4.81 and the GI50 (cell line HCC2185, value is the negative log10 of mol/L) was 4.81. For the same molecule, the GI50 (cell line HCC3153, censored GI50 values, value is the negative log10 of mol/L) was 4.44, the GI50 (cell line HCC3153, value is the negative log10 of mol/L) was 4.44 and the GI50 (cell line LY2, censored GI50 values, value is the negative log10 of mol/L) was 5.35. It also gave a GI50 (cell line LY2, value is the negative log10 of mol/L) of 5.35, a GI50 (cell line MCF7, censored GI50 values, value is the negative log10 of mol/L) of 5.24 and a GI50 (cell line MCF7, value is the negative log10 of mol/L) of 5.24. The GI50 (cell line MDAMB134V, value is the negative log10 of mol/L) was 4.76, the GI50 (cell line MDAMB134VI, censored GI50 values, value is the negative log10 of mol/L) was 4.76 and the GI50 (cell line MDAMB157, censored GI50 values, value is the negative log10 of mol/L) was 4.45. For the same molecule, the GI50 (cell line MDAMB157, value is the negative log10 of mol/L) was 4.45, the GI50 (cell line MDAMB175V, value is the negative log10 of mol/L) was 5.08 and the GI50 (cell line MDAMB175VII, censored GI50 values, value is the negative log10 of mol/L) was 5.08. For the same molecule, the GI50 (cell line MDAMB231, value is the negative log10 of mol/L) was 4.18, the GI50 (cell line MDAMB361, value is the negative log10 of mol/L) was 4.23 and the GI50 (cell line MDAMB415, censored GI50 values, value is the negative log10 of mol/L) was 4.59. It also gave a GI50 (cell line MDAMB415, value is the negative log10 of mol/L) of 4.59, a GI50 (cell line MDAMB436, value is the negative log10 of mol/L) of 4.30 and a GI50 (cell line MDAMB453, value is the negative log10 of mol/L) of 4.32. It also gave a GI50 (cell line MDAMB468, censored GI50 values, value is the negative log10 of mol/L) of 4.44, a GI50 (cell line MDAMB468, value is the negative log10 of mol/L) of 4.44 and a GI50 (cell line SKBR3, value is the negative log10 of mol/L) of 4.32. The GI50 (cell line SUM52PE, censored GI50 values, value is the negative log10 of mol/L) was 4.73, the GI50 (cell line SUM52PE, value is the negative log10 of mol/L) was 4.73 and the GI50 (cell line SUM149PT, censored GI50 values, value is the negative log10 of mol/L) was 4.56. For the same molecule, the GI50 (cell line SUM149PT, value is the negative log10 of mol/L) was 4.56, the GI50 (cell line SUM159PT, censored GI50 values, value is the negative log10 of mol/L) was 4.78 and the GI50 (cell line SUM159PT, value is the negative log10 of mol/L) was 4.78. It also gave a GI50 (cell line SUM185PE, censored GI50 values, value is the negative log10 of mol/L) of 4.54, a GI50 (cell line SUM185PE, value is the negative log10 of mol/L) of 4.54 and a GI50 (cell line SUM225CWN, censored GI50 values, value is the negative log10 of mol/L) of 4.69. It also gave a GI50 (cell line SUM225CWN, value is the negative log10 of mol/L) of 4.69, a GI50 (cell line SUM1315MO2, censored GI50 values, value is the negative log10 of mol/L) of 4.67 and a GI50 (cell line SUM1315MO, value is the negative log10 of mol/L) of 4.67. It also gave a GI50 (cell line T47D, censored GI50 values, value is the negative log10 of mol/L) of 4.51, a GI50 (cell line T47D, value is the negative log10 of mol/L) of 4.51 and a GI50 (cell line UACC812, censored GI50 values, value is the negative log10 of mol/L) of 4.45. The GI50 (cell line UACC812, value is the negative log10 of mol/L) was 4.45, the GI50 (cell line UACC893, censored GI50 values, value is the negative log10 of mol/L) was 4.69 and the GI50 (cell line UACC893, value is the negative log10 of mol/L) was 4.69. For the same molecule, the GI50 (cell line ZR75B, censored GI50 values, value is the negative log10 of mol/L) was 5.69, the GI50 (cell line ZR75B, value is the negative log10 of mol/L) was 5.69 and the GI50 (cell line ZR751, censored GI50 values, value is the negative log10 of mol/L) was 5.51. It also gave a GI50 (cell line ZR751, value is the negative log10 of mol/L) of 5.51.
